Values quoted from earlier work, collected in US10314873B2, “Method of treatment of diseases using hoodia extracts” (HADASIT MEDICAL RESEARCH SERVICES & DEVELOPMENT LTD., priority 2008, dated 2019).

What was measured:
[1] = system: hypothalamic neurons; conditions: icv injection of purified P57
[2] = system: Liver; conditions: P57 studies

C/C=C(\C)C(=O)O[C@@H]1C[C@H]2[C@@H](CC=C3C[C@@H](O[C@H]4C[C@H](OC)[C@H](O[C@H]5C[C@H](OC)[C@H](O[C@@H]6O[C@H](C)[C@@H](O)[C@H](OC)[C@H]6O)[C@@H](C)O5)[C@@H](C)O4)CC[C@@]32C)[C@@]2(O)CC[C@H](C(C)=O)[C@@]12C [P57, (3β,12β,14β)-3-[(O-6-Deoxy-3-O-methyl-β-D-glucopyranosyl-(1→4)-O-2,6-dideoxy-3-O-methyl-β-D-ribohexopyranosyl-(1→4)-2,6-dideoxy-3-O-methyl-β-D-ribo-hexopyranosyl)oxy]-14-hydroxy-12-[[(2E)-2-methyl-1-oxo-2-butenyl]oxy]pregn-5-en-20-one]
increase of ATP content in hypothalamic neurons [1]: 50-150%
reduction of liver ATP content [2]: about 60%
